The record followed here is patent US8163724B2, “Glucocorticosteroids, processes for their preparation, pharmaceutical compositions containing them and their use in therapy” (AstraZeneca AB, priority 2007, dated 2012).

The IC50 is the midpoint of a concentration-inhibition curve.

This experiment addresses T1, recombinant human GR (Homo sapiens, UniProt P04150).
T1 construct: purchased Panvera/Invitrogen P2812 (kit P2893)
T1 sequence (P04150 1-777): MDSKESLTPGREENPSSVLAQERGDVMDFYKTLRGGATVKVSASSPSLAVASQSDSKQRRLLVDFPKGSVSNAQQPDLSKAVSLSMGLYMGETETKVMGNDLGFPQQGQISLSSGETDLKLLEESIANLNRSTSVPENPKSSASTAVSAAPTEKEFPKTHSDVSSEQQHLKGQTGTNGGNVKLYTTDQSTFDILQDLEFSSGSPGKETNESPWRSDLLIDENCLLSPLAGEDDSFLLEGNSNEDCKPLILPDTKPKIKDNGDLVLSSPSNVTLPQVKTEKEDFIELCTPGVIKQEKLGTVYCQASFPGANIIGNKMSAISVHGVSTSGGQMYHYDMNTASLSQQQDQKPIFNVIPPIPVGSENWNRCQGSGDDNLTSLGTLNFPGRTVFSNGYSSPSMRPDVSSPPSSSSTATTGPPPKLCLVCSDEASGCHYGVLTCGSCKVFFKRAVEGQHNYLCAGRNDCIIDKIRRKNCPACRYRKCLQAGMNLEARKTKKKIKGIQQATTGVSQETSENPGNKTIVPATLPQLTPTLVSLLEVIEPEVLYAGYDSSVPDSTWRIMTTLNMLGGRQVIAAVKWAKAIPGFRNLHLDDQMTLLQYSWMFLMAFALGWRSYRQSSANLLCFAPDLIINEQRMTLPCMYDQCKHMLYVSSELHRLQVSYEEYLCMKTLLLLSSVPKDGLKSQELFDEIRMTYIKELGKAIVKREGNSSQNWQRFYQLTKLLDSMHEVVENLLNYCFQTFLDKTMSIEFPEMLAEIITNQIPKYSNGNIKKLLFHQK
Kind of experiment: Human Glucocorticoid Receptor (GR) Assay (fluorescence polarization, Panvera/Invitrogen kit). The format is binding. How it is done:
Human Glucocorticoid Receptor (GR) Assay
The assay is based on a commercial kit from Panvera/Invitrogen (Part number P2893). The assay technology is fluorescence polarization. […] The GR and Stabilizing Peptide reagents are stored at −70° C. while the GS Red is stored at −20° C. Also included in the kit are 1M DTT (Panvera, Part number P2325, stored at −20° C.) and GR Screening buffer 10× (Panvera, Part number P2814, stored at −70° C. initially but once thawed stored at room temperature). Avoid repeated freeze/thaws for all reagents. The GR Screening buffer 10× comprises 100 mM potassium phosphate, 200 mM sodium molybdate, 1 mM EDTA and 20% DMSO.
0% control was 100% DMSO and 100% control was 10 μM Dexamethasone. Background solution (8 μL; assay buffer 10×, Stabilizing Peptide, DTT and ice cold MQ water) was added to the background wells. GS Red solution (7 μL; assay buffer 10×, Stabilizing Peptide, DTT, GS Red and ice cold water) was added to all wells except background wells. GR solution (7 μL; assay buffer 10×, Stabilizing Peptide, DTT, GR and ice cold water) was added to all wells. The plate was sealed and incubated in a dark at room temperature for 2 hours.
In general terms: Fluorescence polarisation rises when a labelled molecule tumbles more slowly, as on binding a larger partner.

Where [1] appears, read: fluorescence polarization, GS Red tracer, 2 hours at room temperature, 100% control 10 μM Dexamethasone, read-out: Inhibition of GR binding, IC50.

Read-outs that look alike come from different tables or passages of the source.

`C[C@]12Cc3cnn(-c4ccc(F)cc4)c3C=C1CC[C@@H]1[C@@H]2[C@@H](O)C[C@@]2(C)[C@H]1CC[C@]2(OC(=O)C1CC1)C(=O)SCCO` [Example 36, (1R,3aS,3bS,10aR,10bS,11S,12aS)-7-(4-Fluorophenyl)-11-hydroxy-1-{[(2-hydroxy-ethyl)thio]carbonyl}-10a,12a-dimethyl-1,2,3,3a,3b,4,5,7,10,10a,10b,11,12,12a-tetradecahydrocyclopenta[5,6]naphtho[1,2-f]indazol-1-yl cyclopropanecarboxylate]: the IC50 under setting [1] came out at 2.5 nM.
`C[C@]12Cc3cnn(-c4ccc(F)nc4)c3C=C1CC[C@@H]1[C@@H]2[C@@H](O)C[C@@]2(C)[C@H]1CC[C@]2(OC(=O)[C@H]1CCCO1)C(=O)SCF` [Example 187, (1R,3aS,3bS,10aR,10bS,11S,12aS)-1-{[(Fluoromethyl)sulfanyl]carbonyl}-7-(6-fluoropyridin-3-yl)-11-hydroxy-10a,12a-dimethyl-1,2,3,3a,3b,4,5,10,10a,10b,11,12,12a-tetradecahydrocyclopenta[5,6]naphtho[1,2-f]indazol-1-yl (2R)-tetrahydrofuran-2-carboxylate]: the IC50 under setting [1] stood at 2.3 nM.
As for `CN(C)C(=O)SC(=O)[C@@]1(OC(=O)c2ccco2)CC[C@H]2[C@@H]3CCC4=Cc5c(cnn5-c5cc(F)cc(F)c5)C[C@]4(C)[C@H]3[C@@H](O)C[C@@]21C` [Example 107, (1R,3aS,3bS,10aR,10bS,11S,12aS)-7-(3,5-Difluorophenyl)-1-{[(dimethylcarbamoyl)sulfanyl]carbonyl}-11-hydroxy-10a,12a-dimethyl-1,2,3,3a,3b,4,5,7,10,10a,10b,11,12,12a-tetradecahydrocyclopenta[5,6]naphtho[1,2-f]indazol-1-yl furan-2-carboxylate], the IC50 under setting [1] amounted to 59 nM.
For `CC(=O)O[C@]1(C(=O)CSC(C)=O)CC[C@H]2[C@@H]3CCC4=Cc5c(cnn5-c5ccc(F)cc5)C[C@]4(C)[C@H]3[C@@H](O)C[C@@]21C` [Example 123, (1R,3aS,3bS,10aR,10bS,11S,12aS)-1-[(Acetylsulfanyl)acetyl]-7-(4-fluorophenyl)-11-hydroxy-10a,12a-dimethyl-1,2,3,3a,3b,4,5,7,10,10a,10b,11,12,12a-tetradecahydrocyclopenta[5,6]naphtho[1,2-f]indazol-1-yl acetate], the IC50 under setting [1] turned out to be 5.4 nM.
With `C[C@]12Cc3cnn(-c4ccc(F)cc4)c3C=C1CC[C@@H]1[C@@H]2[C@@H](O)C[C@@]2(C)[C@H]1CC[C@]2(OC(=O)CF)C(=O)SCF` [Example 28, (1R,3aS,3bS,10aR,10bS,11S,12aS)-1-{[(Fluoromethyl)thio]carbonyl}-7-(4-fluoro-phenyl)-11-hydroxy-10a,12a-dimethyl-1,2,3,3a,3b,4,5,7,10,10a,10b,11,12,12a-tetradecahydrocyclopenta[5,6]naphtho[1,2-f]indazol-1-yl fluoroacetate], the IC50 is 4.2 nM.
In the case of `CCSC(=O)[C@@]1(OC(=O)c2snnc2C)CC[C@H]2[C@@H]3CCC4=Cc5c(cnn5-c5ccc(F)cc5)C[C@]4(C)[C@H]3[C@@H](O)C[C@@]21C` [Example 5, (1R,3aS,3bS,10aR,10bS,11S,12aS)-1-[(Ethylthio)carbonyl]-7-(4-fluorophenyl)-11-hydroxy-10a,12a-dimethyl-1,2,3,3a,3b,4,5,7,10,10a,10b,11,12,12a-tetradecahydrocyclopenta[5,6]naphtho[1,2-f]indazol-1-yl 4-methyl-1,2,3-thiadiazole-5-carboxylate], under setting [1], the IC50 turned out to be 15 nM.
Regarding `CCC(=O)O[C@]1(C(=O)SCF)CC[C@H]2[C@@H]3CCC4=Cc5c(cnn5-c5ccc(F)nc5)C[C@]4(C)[C@H]3[C@@H](O)C[C@@]21C` [Example 99, (1R,3aS,3bS,10aR,10bS,11S,12aS)-1-{[(Fluoromethyl)sulfanyl]carbonyl}-7-(6-fluoropyridin-3-yl)-11-hydroxy-10a,12a-dimethyl-1,2,3,3a,3b,4,5,7,10,10a,10b,11,12,12a-tetradecahydrocyclopenta[5,6]naphtho[1,2-f]indazol-1-yl propanoate], the IC50 under setting [1] was 2.1 nM.
With `C[C@]12Cc3cnn(-c4ccc(F)c(CO)c4)c3C=C1CC[C@@H]1[C@@H]2[C@@H](O)C[C@@]2(C)[C@H]1CC[C@]2(OC(=O)C1CC1)C(=O)OCC#N` [Example 145, Cyanomethyl(1R,3aS,3bS,10aR,10bS,11S,12aS)-1-[(cyclopropylcarbonyl)oxy]-7-[4-fluoro-3-(hydroxymethyl)phenyl]-11-hydroxy-10a,12a-dimethyl-1,2,3,3a,3b,4,5,7,10,10a,10b,11,12,12a-tetradecahydrocyclopenta[5,6]naphtho[1,2-f]indazole-1-carboxylate], the IC50 under setting [1] was determined as 3.2 nM.
Same read-out and setting: to `CCOC(=O)O[C@]1(C(=O)SCC#N)CC[C@H]2[C@@H]3CCC4=Cc5c(cnn5-c5ccc(F)cc5)C[C@]4(C)[C@H]3[C@@H](O)C[C@@]21C` [Example 67, S-(Cyanomethyl)(1R,3aS,3bS,10aR,10bS,11S,12aS)-1-[(ethoxycarbonyl)oxy]-7-(4-fluorophenyl)-11-hydroxy-10a,12a-dimethyl-1,2,3,3a,3b,4,5,7,10,10a,10b,11,12,12a-tetradecahydrocyclopenta[5,6]naphtho[1,2-f]indazole-1-carbothioate] belongs 38 nM; to `C[C@]12Cc3cnn(-c4ccc(F)cc4)c3C=C1CC[C@@H]1[C@@H]2[C@@H](O)C[C@@]2(C)[C@H]1CC[C@]2(OC(=O)C1CCC1)C(=O)SCC#N` [Example 113, (1R,3aS,3bS,10aR,10bS,11S,12aS)-1-{[(Cyanomethyl)sulfanyl]carbonyl}-7-(4-fluorophenyl)-11-hydroxy-10a,12a-dimethyl-1,2,3,3a,3b,4,5,7,10,10a,10b,11,12,12a-tetradecahydrocyclopenta[5,6]naphtho[1,2-f]indazol-1-yl cyclobutanecarboxylate], 11 nM.
`CC(=O)O[C@]1(C(=O)SCF)CC[C@H]2[C@@H]3CCC4=Cc5c(cnn5-c5ccc(F)cc5)C[C@]4(C)[C@H]3[C@@H](O)C[C@@]21C` [Example 110, (1R,3aS,3bS,10aR,10bS,11S,12aS)-1-{[(Fluoromethyl)sulfanyl]carbonyl}-7-(4-fluorophenyl)-11-hydroxy-10a,12a-dimethyl-1,2,3,3a,3b,4,5,7,10,10a,10b,11,12,12a-tetradecahydrocyclopenta[5,6]naphtho[1,2-f]indazol-1-yl acetate]: the IC50 under setting [1] amounted to 6.7 nM.
Consider `C[C@]12Cc3cnn(-c4ccc(F)cc4)c3C=C1CC[C@@H]1[C@@H]2[C@@H](O)C[C@@]2(C)[C@H]1CC[C@]2(OC(=O)C1CCOCC1)C(=O)SCCO` [Example 127, (1R,3aS,3bS,10aR,10bS,11S,12aS)-7-(4-Fluorophenyl)-11-hydroxy-1-{[(2-hydroxyethyl)sulfanyl]carbonyl}-10a,12a-dimethyl-1,2,3,3a,3b,4,5,7,10,10a,10b,11,12,12a-tetradecahydrocyclopenta[5,6]naphtho[1,2-f]indazol-1-yl tetrahydro-2H-pyran-4-carboxylate], for which, under setting [1], the IC50 was found to be 3.7 nM.
